Columns and labels:
[1] = test system: ras-transformed fibroblasts; test: Growth in soft agar of ras-transformed fibroblasts with ectopic lysyl oxidase expression, with BAPN; assay type: cell-based
Description: It has now been determined that the ability of lysyl oxidase to revert the phenotype of ras-transformed fibroblasts depends substantially on the pro-peptide domain and not on lysyl oxidase enzyme activity. Since diminished lysyl oxidase expression in some way contributes to the transformed phenotype, it had generally been assumed that lysyl oxidase enzyme activity is related to the tumor suppressor activity of lysyl oxidase, and, therefore, that diminished lysyl oxidase activity promotes the transformed phenotype. […] The lack of effect of BAPN on lysyl oxidase-dependent phenotype control is interesting. […] Given that BAPN is an irreversible inhibitor of lysyl oxidase (Tang et al., 1983), it follows that both extracellular and intracellular lysyl oxidase activity are susceptible to inhibition by BAPN.

RS485 cells [2] = test: Growth curves of RS485 cells (crystal violet staining); assay type: cell-based; conditions: for decrease of growth rate: linear regression of log of absorbance vs time
Description: Effect of suramin on RS485 cell phenotype. Suramin is a polysulfonated naphthylurea, initially used in the treatment of trypanosomiasis and onchocerciasis (Sullivan et al., 1997). Its anti-cancer activity was later identified, and suramin has been introduced into clinical trials for various forms of cancer (La Rocca et al., 1990(a); La Rocca et al., 1990(b); Song et al., 2001; Small et al., 2000; Garcia-Schurmann et al., 1999). Suramin interrupts autocrine growth factor pathways by inhibiting the binding of growth factors to their receptors (Sullivan et al., 1997; Zanghi et al., 2000; Fukumoto et al., 2000; Mietz et al., 1998; Coffey et al., 1987). Treatment of c-Ha-ras-transformed NIH 3T3 cells (RS485 cell line) with suramin leads to the induction of lysyl oxidase (Palamakumbura et al., 2003). Here we investigated the effects of suramin on the rate of growth and morphology of RS485 cells, as an initial measure of cell phenotype. Cells were plated in 6-well plates and cultured for 24 hours and then grown in the continuous presence of 0, 100, 125, or 150 μM suramin. As control, the growth of phenotypically normal NIH 3T3 cells in the absence of suramin was analyzed at the same time. Cell growth was determined by daily crystal violet staining of replicate wells. RS485 cells grew more rapidly than NIH 3T3 cells, as expected (Chang et al., 1982). […] The growth rate of RS485 cells treated with 150 μM suramin was similar to that of NIH 3T3 cells.
BAPN-mediated inhibition of lysyl oxidase enzyme activity fails to prevent phenotypic reversion induced by suramin. It has generally been assumed, although never directly tested, that lysyl oxidase dependent phenotypic reversion and tumor suppressor activity depends on its enzyme activity. To directly test the role of lysyl oxidase enzyme activity, we measured the effects of the lysyl oxidase inhibitor, BAPN (Tang et al., 1983), on the phenotypic changes in RS485 cells following treatment with 150 μM suramin. We have previously shown that suramin induces lysyl oxidase activity by about 2.5-fold (Palamakumbura et al., 2003). RS485 cell growth was assessed in the absence or presence of either 150 μM suramin or 400 μM BAPN, or a combination of both 150 μM suramin and 400 μM BAPN.
(§1) Growth curves. To study cell growth rates, cells were plated in 6-well plates at a density of 35,000 cells/well and were grown in complete medium containing 10% FBS, as described above. Additions of suramin or β-aminopropionitrile (BAPN), when appropriate, were initiated 24 hours after plating. Media were changed every three days in the continuous presence of suramin or BAPN, as indicated for each experimental design in the Results section. Cell density was determined in triplicate every day by crystal violet staining, as described (Kueng et al., 1989; Gillies et al., 1986). Cells were fixed with 10% formalin in PBS, washed with PBS, and then stained for 30 minutes with 0.1% crystal violet at room temperature with shaking. Unbound dye was then removed by washing with water until washes were colorless. Bound dye was then eluted with 10% acetic acid, and quantitated by measuring the absorbance at 590 nm. For quantitative analyses of growth rates, the logarithmic value of absorbance vs time was plotted±standard deviation and the rates were calculated by linear regression analyses. In addition, data were plotted as total absorbance +/−SE vs time. Experiments were performed three times each with consistent findings.

lysyl oxidase = biological target: T1, lysyl oxidase (Mus musculus, UniProt P28301); test: Lysyl oxidase enzyme activity in PR4 cell culture media (tritiated tropoelastin substrate); assay type: biochemical
T1 construct: endogenous in cells; conditioned serum-free medium
T1 sequence (P28301 163-411): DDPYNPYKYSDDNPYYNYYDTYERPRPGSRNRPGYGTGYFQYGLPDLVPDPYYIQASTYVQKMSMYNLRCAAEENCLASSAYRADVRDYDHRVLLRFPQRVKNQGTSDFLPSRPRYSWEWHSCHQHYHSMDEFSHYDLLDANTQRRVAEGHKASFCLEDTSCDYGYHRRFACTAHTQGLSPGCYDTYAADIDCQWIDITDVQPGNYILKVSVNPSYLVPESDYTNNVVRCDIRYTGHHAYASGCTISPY
Description: (§2) If lysyl oxidase enzyme activity were required for the normal phenotype of PR4 cells, then BAPN would cause re-transformation. Thus, growth curves were generated for PR4 cells in the presence of 0 or 400 μM BAPN.
Lysyl oxidase enzyme activity. PR4 cells were plated in 100 mm cell culture plates and then grown and re-fed every two days as described above in the constant presence of 0, 200 and 400 μM BAPN for seven days until visually confluent. Cells were then re-fed with serum-free medium supplemented with 0.1% bovine serum albumin still in the constant presence or absence of BAPN. After 24 hours conditioned 0.3 ml aliquots of media samples were assayed in quadruplicate using a tritiated recombinant human tropoelastin as substrate as previously described (Bedell-Hogan et al., 1993). Incubations were performed at […] for 90 minutes (Hong et al., 1999) and data were expressed as total cpm released +/−SE per culture.

PR4 cells = test: Growth curves and morphology of PR4 cells; assay type: cell-based; conditions: 400 μM BAPN
Description: as §2
as §1, with “Experiments were performed three times each with consistent findings.” left out

lysyl oxidase activity = conditions: previously shown (Palamakumbura et al., 2003); cited from earlier work
[3] = test system: transfected RS485 cell clones; test: Cell cycle analysis of anti-sense lysyl oxidase and empty vector transfected RS485 cell clones; assay type: cell-based; conditions: 150 μM suramin, 24 hours
Description: Inhibition of lysyl oxidase expression reduces phenotypic reversion induced by suramin. […] To determine that the suramin-induced phenotypic changes depend upon lysyl oxidase expression, we generated stable anti-sense lysyl oxidase transfected RS485 cell clones. Nine anti-sense lysyl oxidase transfected clones and six empty vector transfected clones were generated and grown in the presence and absence of 150 μM suramin, and after 24 hours, cells were fixed and subjected to cell cycle analysis. Non-transfected RS485 cells were analyzed as an additional control. Differences in the percentage of cells in G1 and S phase occurred as a function of suramin treatment.
(§3) Cell cycle analysis. RS485, NIH 3T3 and PR4 cells were plated on 100 mm plates and were grown until confluent with 0 or 150 μM suramin. Cells (1.5−2×10^6) were then trypsinized, washed with PBS and fixed by washing with ice-cold 70% ethanol. Cells were stained with propidium iodide (50 μg/ml) in PBS containing 2% FBS and was analyzed by flow cytometry using a FACScan flow cytometry with CELLQUEST acquisition and analysis software (Becton Dickinson Co, Bedford, Mass.).
Stable transfection of RS485 cells with an anti-sense lysyl oxidase expression vector. Cells were grown in 100 mm cell culture dishes. At approximately 70% confluence, they were transfected with the anti-sense murine lysyl oxidase expression vector pCLO3 (Giampuzzi et al., 2001) (20 μg DNA/plate) using the calcium phosphate precipitation method (Graham et al., 1973). As a control, RS485 cells were transfected with empty vector (pcDNA3). The transfected cells were selected using G418 (geneticin) at a final concentration of 400 μg/ml in the medium. Colonies were isolated from anti-sense lysyl oxidase and empty vector transfected RS485 cells using cloning cylinders (Southern et al., 1982) and cultured in 400 μg/ml G418. Cells were then plated onto 100 mm plates (250,000 cells/plate) without G418 and treated with 0 or 150 μM suramin. After 24 hours, cells were prepared for cell cycle and Northern analysis as described above.

RS485 cells [4] = test: Cell cycle analysis (FACS, propidium iodide) of RS485 cells treated with suramin; assay type: cell-based; conditions: 2 days
Description: We next determined the effects of suramin on cell cycle progression of RS485 cell cultures. […] The proportions of cells in G1 and S phases in cultures treated with 150 μM suramin are nearly identical to untreated phenotypically normal NIH 3T3 cells (Table I). Thus, treatment with 150 μM suramin changed the morphology, cell cycle, and growth rate of RS485 cells resulting in a more normal phenotype.
as §3
RS485 cells were grown in the presence of 0, 100, or 150 μM suramin for 2 days. Alternatively, NIH 3T3 cells were grown in the absence of suramin, as control. Cells (1.5−2×10^6) were fixed with 70% ethanol and stained with propidium iodide and analyzed by flow cytometry. Data shown are the averages ±SD of experiments performed three times.

lysyl oxidase mRNA = test: Northern blot analysis of lysyl oxidase mRNA in transfected RS485 clones; assay type: cell-based, mouse; conditions: 150 μM suramin, 24 hours, normalized to 18S rRNA
Description: To confirm that lysyl oxidase expression is actually diminished by anti-sense lysyl oxidase transfection, the ability of 150 μM suramin to induce low steady state mRNA levels of lysyl oxidase in clones was assessed after 24 hours of treatment by Northern blot analysis with normalization to 18S rRNA signals. Suramin treatment led to an average 8-fold increase in lysyl oxidase mRNA levels in the six empty vector-transfected clones assayed, consistent with previous studies on non-transfected RS485 cells (Palamakumbura et al., 2003). In contrast, an average 1.8-fold increase in lysyl oxidase mRNA levels occurred in the nine anti-sense lysyl oxidase transfected clones, as shown by Northern blot analysis. Thus, the induction of steady state lysyl oxidase mRNA levels by suramin is inhibited by the anti-sense lysyl oxidase transfection, as expected.
RNA isolation and Northern blot analysis. Total RNA was isolated using the RNeasy —RNA isolation kit (Qiagen, Valencia, Calif.). Ten μg samples of denatured RNA were electrophoresed on a 1% agarose gel containing […]. Gels were transferred in 10×SSC by capillary blotting overnight to Gene Screen nylon membranes (Perkin Elmer Life Science, Boston, Mass.). […] Autoradiograms were assessed and normalized by densitometric scanning on a Versa Doc Model 3000 Gel Documentation System and Quantity One Software (BioRad, Hercules, Calif.). […]

[5] = anti-sense lysyl oxidase transfected clones
[6] = empty vector transfected clones

What does the source list for N#CCCN [BAPN, β-aminopropionitrile]?
effect on ability of ectopic lysyl oxidase expression to prevent growth in soft agar [1]: failed to block; effect on suramin-mediated inhibition of RS485 cell growth (RS485 cells [2]; 150 μM suramin and 400 μM BAPN combined): did not reverse or affect in any detectable way; effect on growth rate of RS485 cells (RS485 cells [2]; 400 μM BAPN): had no effect on the growth rate; lysyl oxidase enzyme activity in medium (lysyl oxidase; PR4 cultures in continuous presence of 200 μM BAPN): no lysyl oxidase enzyme activity was detected; lysyl oxidase enzyme activity in medium (lysyl oxidase; PR4 cultures in continuous presence of 400 μM BAPN): no lysyl oxidase enzyme activity was detected; effect on growth rate of PR4 cells (PR4 cells): did not affect the growth rate; effect on morphology of PR4 cells (PR4 cells): did not change the morphology

For Cc1ccc(C(=O)Nc2ccc(S(=O)(=O)O)c3cc(S(=O)(=O)O)cc(S(=O)(=O)O)c23)cc1NC(=O)c1cccc(NC(=O)Nc2cccc(C(=O)Nc3cc(C(=O)Nc4ccc(S(=O)(=O)O)c5cc(S(=O)(=O)O)cc(S(=O)(=O)O)c45)ccc3C)c2)c1 [suramin], which “decrease of growth rate” value (RS485 cells [2]; 100 μM suramin) is on record?
The value was 38%.

What about the “decrease of growth rate” value (RS485 cells [2]; 125 μM suramin) of the same compound?
Its value is 49%.

And the “morphology of RS485 cells” value (RS485 cells [2]; 150 μM suramin)?
Its value is “flatter and contact inhibited”.

And the “effect on growth rate of RS485 cells” value (RS485 cells [2]; 150 μM suramin (BAPN experiment))?
Its value is “decreased the growth rate”.

And the “decrease of growth rate” value (RS485 cells [2]; 150 μM suramin)?
Its value is 56%.

And the “induction of lysyl oxidase activity” value (lysyl oxidase activity)?
The value was “about 2.5 fold”.

And the “decrease in S phase” value [3, 5]?
The value was 6.9%.

What about the “increase in percentage of cells in G1 phase” value [3, 5] of the same compound?
The value was 10.6%.

What about the “decrease of average number of cells in S phase” value [3, 6] of the same compound?
The value was 13.5%.

And the “increase of average number of cells in G1” value [3, 6]?
The value was 20.8%.

And the G1 % (RS485 cells [4]; 100 μM suramin)?
The G1 % was 59.4 ± 1.3%.

And the “G2, M %” value (RS485 cells [4]; 100 μM suramin)?
The value was 19.1 ± 7.9%.

And the S % (RS485 cells [4]; 100 μM suramin)?
The S % was 21.5 ± 2.4%.

What about the G1 % (RS485 cells [4]; 150 μM suramin) of the same compound?
The G1 % was 67.4 ± 0.2%.

What about the “G2, M %” value (RS485 cells [4]; 150 μM suramin) of the same compound?
Its value is 13.6 ± 1.9%.

And the S % (RS485 cells [4]; 150 μM suramin)?
Its S % is 19.0 ± 1.7%.

What about the “average increase in lysyl oxidase mRNA levels” value (lysyl oxidase mRNA; nine anti-sense lysyl oxidase transfected clones) of the same compound?
Its value is 1.8 fold.

What about the “average increase in lysyl oxidase mRNA levels” value (lysyl oxidase mRNA; six empty vector-transfected clones) of the same compound?
The value was 8 fold.

— patent publication US20080261870A1, “Use of the Pro-Peptide Domain of Lysyl Oxidase as a Therapeutic Agent” (priority 2004, published 2008)
